IC50 data for two compounds are collected here from patent publication US20040063659A1, “Novel 2'-halomethylidene,2'-ethenylidene and 2'-ethynyl cytidine, uridine and guanosine derivatives” (Merrell Pharmaceuticals Inc., priority 1988, published 2004).

For the assay, the system named is HeLa cells. In words: Inhibitory effects of compounds on HeLa cell proliferation in vitro. The assay is classed as cell-based. The following applies: Homo sapiens; exponentially growing HeLa cells, incubated with test compound for 96 hours; concentration at 50% inhibition of cell growth. As for the experimental part: The inhibitory effect of various compounds of formula (1) on HeLa cell proliferation in vitro was determined according to the method described by Sunkara et al. [J. Natl Cancer Instit. 70, 505-509 (1983)]. Exponentially growing HeLa cells were incubated in the presence or absence of various concentrations of test compounds for 96 hours. IC50 values were calculated which represent the test compound concentration at 50% inhibition of cell growth.

For orientation: IC50 means the concentration that gives 50% inhibition. Read a low IC50 as inhibition by little substance.

Each structure is given as a SMILES string. In brackets after ≈: the same amount, converted by molar mass.

As to `Nc1ccn([C@@H]2O[C@H](CO)[C@@H](O)/C2=C\F)c(=O)n1` [Compound A, (E)-2′-deoxy-2′-fluoromethylidene cytidine], the IC50 was in the range of 0.01 to 0.015 µg/mL (≈ 0.0389 to 0.0583 µM).

In turn, `Nc1ccn([C@@H]2O[C@H](CO)[C@@H](O)/C2=C/F)c(=O)n1` [Compound B, (Z)-2′-deoxy-2′-fluoromethylidene cytidine] had an IC50 of 1 to 5 µg/mL (≈ 3.89 to 19.4 µM).
